SMILES strings stand for the structures. “Also recorded” adds a separate entry of the source.

The subject of one data set is MUC5AC in HT29MTX cells. The experiment in a line: Immuno-fluorescence staining of MUC5AC with CLH2 (FIG. 18). It counts as cell-based, human. The note with it: 5 mM, continuous culture. The text has this: FIG. 18 illustrates immuno-fluorescence staining of HT29MTX cells treated with inhibitors as indicated and stained with the anti-MUC5AC monoclonal antibody, CLH2.
In order to evaluate GalNAcβ-benzyl as an inhibitor of mucin glycosylation and secretion we used the cultured colon carcinoma cells of mucin secreting phenotypes: HT-29 metotrexate (MTX) cells selected from the HT-29 cell line by culture in the presence of MTX (kind gift from G. Huet, France). The HT-29 MTX cells were selected to yield a goblet cell like phenotype with constitutive production of MUC5AC. In order to ensure proper goblet cell differentiation the HT29MTX cell line were continuously grown up to 21 days in the presence of 5 mM GalNAcα-benzyl, 5 mM GalNAcβ-benzyl, 5 mM GlcNAcα-benzyl and without inhibitor using culture conditions as described in Hennebicq-Reig et al. (Permanent exposure of mucin-secreting HT-29 cells to benzyl-N-acetyl-alpha-D-galactosaminide induces abnormal O-glycosylation of mucins and inhibits constitutive and stimulated MUC5AC secretion. Biochem J. 1998; 334:283-95). At 7, 14 and 21 days of continuous culture, media was collected and cells were fixed in 3% paraformaldehyde and stained for the presence of MUC5AC and specific carbohydrate structures using immuno-histochemistry with the following monoclonal antibodies: CLH2 recognizing MUC5AC (Reis C. et al. Immunohistochemical study of MUC5AC expression in human gastric carcinomas using a novel monoclonal antibody. Int. J. Cancer. 1997; 74:112-21), 1E3 recognizing Tn (GalNAcα linked to serine or threonine), 3C9 recognizing T (Galβ1-3GalNAcα linked to serine or threonine, and 3F1 recognizing Sialyl-Tn (NeuAcα2-6GalNAcα linked to serine or threonine. […] Furthermore the viscosity of the media from cells with and without inhibitor was evaluated using viscosity micro-measurement.

The subject of data set [1] is MUC5AC secretion, HT29MTX cells. Kind of data set: MUC5AC secretion from HT29MTX cells by SDS-PAGE Western blotting of media. It counts as cell-based, human. To be noted: 5 mM, 14 days, LUM5-1 antibody. How it is done: FIG. 17 illustrates SDS-PAGE Western analysis of MUC5AC secretion from HT29MTX cells using polyclonal anti-MUC5AC antibody LUM5-1. In order to evaluate GalNAcβ-benzyl as an inhibitor of mucin glycosylation and secretion we used the HT-29 metotrexate (MTX) cultured colon carcinoma cells of mucin secreting phenotype. HT-29 MTX cells have a goblet cell like phenotype with constitutive production of MUC5AC. Cells were continuously grown up to 21 days in the presence of 5 mM GalNAcα-benzyl, 5 mM GalNAcβ-benzyl, 5 mM GlcNAcα-benzyl and without inhibitor. […] In striking contrast, MUC5AC was not detected in the media from cells treated with GalNAcα-benzyl (Lane 3) or GalNAcβ-benzyl (Lane 4). Results shown are from media collected at 14 days.
In order to evaluate GalNAcβ-benzyl as an inhibitor of mucin glycosylation and secretion we used the cultured colon carcinoma cells of mucin secreting phenotypes: HT-29 metotrexate (MTX) cells selected from the HT-29 cell line by culture in the presence of MTX (kind gift from G. Huet, France). The HT-29 MTX cells were selected to yield a goblet cell like phenotype with constitutive production of MUC5AC. In order to ensure proper goblet cell differentiation the HT29MTX cell line were continuously grown up to 21 days in the presence of 5 mM GalNAcα-benzyl, 5 mM GalNAcβ-benzyl, 5 mM GlcNAcα-benzyl and without inhibitor using culture conditions as described in Hennebicq-Reig et al. (Permanent exposure of mucin-secreting HT-29 cells to benzyl-N-acetyl-alpha-D-galactosaminide induces abnormal O-glycosylation of mucins and inhibits constitutive and stimulated MUC5AC secretion. Biochem J. 1998; 334:283-95). […] Furthermore the viscosity of the media from cells with and without inhibitor was evaluated using viscosity micro-measurement.

In data set [2] the test system is MUC1 expression in CHO1d1D/MUC1F-clone2 cells. The experiment in a line: MUC1 expression in cell lysates by immunoprecipitation, SDS-PAGE and western blot. It counts as cell-based, Chinese hamster (CHO 1d1D cells); human MUC1. The note with it: 2 mM; for MUC1 expression: cells in GalNAc or Gal and GalNAc; for SDS-PAGE migration of MUC1 (O-glycan extension): cells in Gal and GalNAc. How it is done: FIG. 12 is an SDS-PAGE Western analysis of GalNAcα-benzyl inhibition of MUC1 expression in CHO 1d1D cells stably transfected with a full coding MUC1 construct. […] Cells were further treated with 2 mM GalNAcα-benzyl (lanes 1, 4, 7, 10), 2 mM GlcNAcα-benzyl (lanes 2, 5, 8, 11) or no inhibitor (lanes 3, 6, 9, 12). Cells were washed and lysed at 24 or 48 hours and the lysates subjected to immunoprecipitation with monoclonal antibody HMFG2, which broadly recognize MUC1 glycoforms. Immunoprecipitates were analysed by SDS-PAGE and western blot using HMFG2 antibody to detect MUC1 expression. Lane M indicates molecular markers with assigned mw. Lane C includes a control MUC1 180-mer tandem repeat peptide which has been GalNAc-glycosylated with 3 moles GalNAc per repeat using GalNAc-T2. The sharp bands migrating at 100-200 kd are immunoglobulins indicated by IgG.
FIG. 13 is a SDS-PAGE Western analysis resulting from the same experiment as in FIG. 12, but using a novel monoclonal antibody, 5E5, to visualize MUC1 expression. […] Cells were further treated with 2 mM GalNAcα-benzyl (lanes 1, 4), 2 mM GlcNAcα-benzyl (lanes 2, 5) or no inhibitor (lanes 3, 6). Cells were washed and lysed at 48 hours and the lysates subjected to immunoprecipitation with monoclonal antibody HMFG2, which broadly recognize MUC1 glycoforms. Immunoprecipitates were analysed by SDS-PAGE and western blot using 5E5 antibody, which selectively recognize GalNAc-glycosylated MUC1 expression and show no reactivity with unglycosylated MUC1 peptides. Lanes M and C as described in legend to FIG. 12.
Cells were further treated with 2 mM GalNAcα-benzyl (lanes 1, 4, 7, 10), 2 mM GalNAcβ-benzyl (lanes 2, 5, 8, 11) or 2 mM GlcNAcα-benzyl (lanes 3, 6, 9, 12). Cells were washed and lysed at 36 hours and the lysates subjected to immunoprecipitation with monoclonal antibodies HMFG2 (lanes 1-6) or 5E5 (lanes 7-12). Immunoprecipitates were analysed by SDS-PAGE and western blot using HMFG2 antibody. Lanes M and C as described in legend to FIG. 7.
FIG. 15 is an SDS-PAGE Western analysis resulting from the same experiment as FIG. 14, except that expression is visualized by the monoclonal antibody 5E5. […] Cells were further treated with 2 mM GalNAcα-benzyl (lanes 1, 4, 7, 10), 2 mM GalNAcβ-benzyl (lanes 2, 5, 8, 11) or 2 mM GlcNAcα-benzyl (lanes 3, 6, 9, 12). Cells were washed and lysed at 36 hours and the lysates subjected to immunoprecipitation with monoclonal antibodies HMFG2 (lanes 1-6) or 5E5 (lanes 7-12). Immunoprecipitates were analysed by SDS-PAGE and western blot using 5E5 antibody. Lanes M and C as described in legend to FIG. 12.
We therefore investigated the effect of treatment with GalNAcα-benzyl of CHO1d1D/MUC1F-clone2 cells grown in the presence of GalNAc. CHO1d1D/MUC1F-clone2 cells were seeded in 6 well plates at a density of 0.2×10^6 per well and were grown for 6 hours in Hams F12 medium with serum until approximately 30% subconfluent. […] After 18 hours, the medium was replaced with fresh Optimem containing the sugars and benzyl derivatives as above and grown for 12-48 hours. Initially we analyzed surface expression of MUC1 by immunocytology. Cells were washed once in PBS-CMF (phosphate buffered saline Calcium and Magnesium free) after carefully removing the medium from the wells and subsequently fixed in 2 ml 3% paraformaldehyde at 25° C. for 20 min followed by three washes with PBS-CMF 3 times. Free aldehyde groups were quenched by incubating in 2 mL 50 mM Ammonium Chloride in PBS-CMF for 10 min, followed by three washes with PBS-CMF and three washes with 5 min incubations each with PBS-CMF containing 0.2% Fish Skin Gelatin (Sigma). Immunostaining of cells was performed by incubation with monoclonal antibodies for 40 min at 25° C., followed by three washes with PBS-CMF and three washes of 5 min each with PBS-CMF containing 0.2% Fish Skin Gelatin. […]

The mark [3] stands for this setting: 36 hours, 5E5 blot, cells grown in GalNAc.

As to `CC(=O)N[C@H]1[C@@H](OCc2ccccc2)O[C@H](CO)[C@H](O)[C@@H]1O` [BzlαGalNAc, benzyl-N-acetyl-alpha-D-galactosaminide], in the data set with MUC5AC in HT29MTX cells, the “intracellular staining of MUC5AC” value is “increased intracellular staining” and the storage phenotype entry was “induced a storage phenotype”.

In the case of `CC(=O)N[C@H]1[C@@H](OCc2ccccc2)O[C@H](CO)[C@H](O)[C@@H]1O` [GalNAcα-benzyl, benzyl-N-acetyl-alpha-D-galactosaminide], the MUC5AC in media entry in data set [1] was “diminished secretion of MUC5AC”. For the same molecule, in data set [2] (setting [3]), the “reduction in MUC1 expression” value is “strong inhibition of MUC1 expression”. In addition, the MUC1 expression entry in data set [2] (48 hours, 5E5 blot) was “significant reduction in MUC1 expression”; in data set [2] (48 hours, HMFG2 blot) it was “significant reduction in MUC1 expression”. Besides, the “SDS-PAGE migration of MUC1 (O-glycan extension)” value in data set [2] (48 hours) is on record as “marked shift in migration to lower molecular weight migrating species”.

For `CC(=O)N[C@H]1[C@H](OCc2ccccc2)O[C@H](CO)[C@H](O)[C@@H]1O` [GalNAcβ-benzyl], the MUC5AC in media entry in data set [1] is on record as “diminished secretion of MUC5AC”. Moreover, the “reduction in MUC1 expression” value in data set [2] (setting [3]) is “strong inhibition of MUC1 expression; also recorded: same or better reduction in MUC1 expression as treatment with GalNAcα-benzyl”. Besides, in data set [2] (36 hours, HMFG2 blot), the “reduction in MUC1 expression” value is “same or better reduction in MUC1 expression as treatment with GalNAcα-benzyl”. For the same molecule, the “SDS-PAGE migration of MUC1 (O-glycan extension)” value in data set [2] (36 hours) is reported as “no change in the migration of MUC1”. In the data set on MUC5AC in HT29MTX cells, the “intracellular staining of MUC5AC” value is given as “clearly diminished intracellular staining” and the storage phenotype result was “did not lead to any storage disease”.

For the molecule `CC(=O)N[C@H]1[C@@H](OCc2ccccc2)O[C@H](CO)[C@@H](O)[C@@H]1O` [GlcNAcα-benzyl], in data set [1], the MUC5AC in media entry was “detected MUC5AC in media”. Further, the MUC1 expression entry in data set [2] (48 hours, HMFG2 blot) is “no effect on MUC1 expression and O-glycosylation compared to untreated cells”.

These data come from patent publication US20080038809A1, “ISOLATED LECTIN POLYPEPTIDES CONSISTING OF TRUNCATED […] UDP-GalNAc:POLYPEPTIDE N- ACETYLGALACTOSAMINYLTRANSFERASES” (GLYCOZYM APS, priority 2002, published 2008).
